Experimental data: ChEMBL document CHEMBL3877265, “Design, synthesis and docking studies of novel 1,2-dihydro-4-hydroxy-2-oxoquinoline-3-carboxamide derivatives as a potential anti-proliferative agents” (2017)

How the values were obtained:
Assay type in all cases: functional
[1] = Antiproliferative activity against human PANC1 cells after 48 hrs by SRB assay; conditions: PANC-1, 48 h
[2] = Antiproliferative activity against human HeLa cells after 48 hrs by SRB assay
[3] = Antiproliferative activity against human MDA-MB-231 cells after 48 hrs by SRB assay; conditions: MDA-MB-231, 48 h

**Q.** What does the source list for `COc1ccccc1N1CCN(C(=O)CCNC(=O)c2c(O)c3ccccc3n(C)c2=O)CC1`?
**A.** GI50 ([1]; read-out: GI50): 700 nM; GI50 ([1]; read-out: pGI50 (converted)): 700 nM; GI50 ([2]; read-out: GI50): 740 nM; GI50 ([2]; read-out: pGI50 (converted)): 740 nM; GI50 ([3]; read-out: GI50): 1200 nM; GI50 ([3]; read-out: pGI50 (converted)): 1200 nM

**Q.** For `Cn1c(=O)c(C(=O)NCCC(=O)N2CCN(c3ccccc3F)CC2)c(O)c2ccccc21`, which GI50 ([1]; read-out: GI50) is on record?
**A.** 2500 nM

**Q.** And the GI50 ([1]; read-out: pGI50 (converted))?
**A.** 2500 nM

**Q.** What about the GI50 ([2]; read-out: GI50) of the same compound?
**A.** 960 nM

**Q.** And the GI50 ([2]; read-out: pGI50 (converted))?
**A.** 960 nM

**Q.** And the GI50 ([3]; read-out: GI50)?
**A.** 1700 nM

**Q.** And the GI50 ([3]; read-out: pGI50 (converted))?
**A.** 1700 nM

**Q.** What does the source list for `Cn1c(=O)c(C(=O)NCCC(=O)N2CCN(Cc3ccccc3)CC2)c(O)c2ccccc21`?
**A.** GI50 ([1]; read-out: GI50): 950 nM; GI50 ([1]; read-out: pGI50 (converted)): 950 nM; GI50 ([2]; read-out: GI50): 760 nM; GI50 ([2]; read-out: pGI50 (converted)): 760 nM; GI50 ([3]; read-out: GI50): 510 nM; GI50 ([3]; read-out: pGI50 (converted)): 510 nM

**Q.** Which results are given for `COc1cccc(N2CCN(C(=O)CCNC(=O)c3c(O)c4ccccc4n(C)c3=O)CC2)c1`?
**A.** GI50 ([1]; read-out: GI50): 510 nM; GI50 ([1]; read-out: pGI50 (converted)): 510 nM; GI50 ([2]; read-out: GI50): 730 nM; GI50 ([2]; read-out: pGI50 (converted)): 730 nM; GI50 ([3]; read-out: GI50): 1300 nM; GI50 ([3]; read-out: pGI50 (converted)): 1300 nM

**Q.** For `COC(=O)Nc1nc2cc(C(=O)c3cccs3)ccc2[nH]1` [NOCODAZOLE], which GI50 ([1]; read-out: GI50) is on record?
**A.** < 10 nM

**Q.** And the GI50 ([2]; read-out: GI50)?
**A.** < 10 nM

**Q.** What about the GI50 ([3]; read-out: GI50) of the same compound?
**A.** < 10 nM

**Q.** With `Cn1c(=O)c(C(=O)NCCC(=O)N2CCCCC2)c(O)c2ccccc21` as the compound, how does the GI50 ([1]; read-out: GI50) read?
**A.** 150 nM

**Q.** And the GI50 ([1]; read-out: pGI50 (converted))?
**A.** 150 nM

**Q.** What about the GI50 ([2]; read-out: GI50) of the same compound?
**A.** 820 nM

**Q.** What about the GI50 ([2]; read-out: pGI50 (converted)) of the same compound?
**A.** 820 nM

**Q.** And the GI50 ([3]; read-out: GI50)?
**A.** 1400 nM

**Q.** What about the GI50 ([3]; read-out: pGI50 (converted)) of the same compound?
**A.** 1400 nM

**Q.** What does the source list for `COc1ccc(C[C@@H](O)c2cc(OC)c(OC)c(OC)c2)cc1O` [COMBRETASTATIN]?
**A.** GI50 ([1]; read-out: GI50): 59 nM; GI50 ([1]; read-out: pGI50 (converted)): 59 nM; GI50 ([2]; read-out: GI50): 83 nM; GI50 ([2]; read-out: pGI50 (converted)): 83 nM; GI50 ([3]; read-out: GI50): 90 nM; GI50 ([3]; read-out: pGI50 (converted)): 90 nM

**Q.** For `Cn1c(=O)c(C(=O)NCCC(=O)N2CCN(c3ccc(C(F)(F)F)cc3)CC2)c(O)c2ccccc21`, which GI50 ([1]; read-out: GI50) is on record?
**A.** 2550 nM

**Q.** And the GI50 ([1]; read-out: pGI50 (converted))?
**A.** 2550 nM

**Q.** And the GI50 ([2]; read-out: GI50)?
**A.** 3700 nM

**Q.** What about the GI50 ([2]; read-out: pGI50 (converted)) of the same compound?
**A.** 3700 nM

**Q.** And the GI50 ([3]; read-out: GI50)?
**A.** 5400 nM

**Q.** What about the GI50 ([3]; read-out: pGI50 (converted)) of the same compound?
**A.** 5400 nM

**Q.** For `CCN1CCN(C(=O)CCNC(=O)c2c(O)c3ccccc3n(C)c2=O)CC1`, which GI50 ([1]; read-out: GI50) is on record?
**A.** 480 nM

**Q.** And the GI50 ([1]; read-out: pGI50 (converted))?
**A.** 480 nM

**Q.** And the GI50 ([2]; read-out: GI50)?
**A.** 880 nM

**Q.** And the GI50 ([2]; read-out: pGI50 (converted))?
**A.** 880 nM

**Q.** And the GI50 ([3]; read-out: GI50)?
**A.** 1320 nM

**Q.** What about the GI50 ([3]; read-out: pGI50 (converted)) of the same compound?
**A.** 1320 nM

**Q.** What does the source list for `CN1CCN(C(=O)CCNC(=O)c2c(O)c3ccccc3n(C)c2=O)CC1`?
**A.** GI50 ([1]; read-out: GI50): 1660 nM; GI50 ([1]; read-out: pGI50 (converted)): 1660 nM; GI50 ([2]; read-out: GI50): 1160 nM; GI50 ([2]; read-out: pGI50 (converted)): 1160 nM; GI50 ([3]; read-out: GI50): 590 nM; GI50 ([3]; read-out: pGI50 (converted)): 590 nM

**Q.** Which results are given for `Cn1c(=O)c(C(=O)NCCC(=O)N2CCN(c3ccccc3)CC2)c(O)c2ccccc21`?
**A.** GI50 ([1]; read-out: GI50): 1570 nM; GI50 ([1]; read-out: pGI50 (converted)): 1570 nM; GI50 ([2]; read-out: GI50): 3900 nM; GI50 ([2]; read-out: pGI50 (converted)): 3900 nM; GI50 ([3]; read-out: GI50): 1620 nM; GI50 ([3]; read-out: pGI50 (converted)): 1620 nM

**Q.** Which GI50 ([1]; read-out: GI50) does the source give for `Cn1c(=O)c(C(=O)NCCC(=O)N2CCN(c3ccc([N+](=O)[O-])cc3)CC2)c(O)c2ccccc21` here?
**A.** 420 nM

**Q.** What about the GI50 ([1]; read-out: pGI50 (converted)) of the same compound?
**A.** 420 nM

**Q.** What about the GI50 ([2]; read-out: GI50) of the same compound?
**A.** 940 nM

**Q.** And the GI50 ([2]; read-out: pGI50 (converted))?
**A.** 940 nM

**Q.** And the GI50 ([3]; read-out: GI50)?
**A.** 300 nM

**Q.** What about the GI50 ([3]; read-out: pGI50 (converted)) of the same compound?
**A.** 300 nM

**Q.** Which GI50 ([1]; read-out: GI50) does the source give for `Cn1c(=O)c(C(=O)NCCC(=O)N2CCC(Cc3ccccc3)CC2)c(O)c2ccccc21` here?
**A.** 680 nM

**Q.** What about the GI50 ([1]; read-out: pGI50 (converted)) of the same compound?
**A.** 680 nM

**Q.** And the GI50 ([2]; read-out: GI50)?
**A.** 1400 nM

**Q.** And the GI50 ([2]; read-out: pGI50 (converted))?
**A.** 1400 nM

**Q.** What about the GI50 ([3]; read-out: GI50) of the same compound?
**A.** 710 nM

**Q.** What about the GI50 ([3]; read-out: pGI50 (converted)) of the same compound?
**A.** 710 nM

**Q.** Which GI50 ([1]; read-out: GI50) does the source give for `Cn1c(=O)c(C(=O)NCCC(=O)N2CCSCC2)c(O)c2ccccc21` here?
**A.** 1910 nM

**Q.** And the GI50 ([1]; read-out: pGI50 (converted))?
**A.** 1910 nM

**Q.** And the GI50 ([2]; read-out: GI50)?
**A.** 3000 nM

**Q.** And the GI50 ([2]; read-out: pGI50 (converted))?
**A.** 3000 nM

**Q.** What about the GI50 ([3]; read-out: GI50) of the same compound?
**A.** 2250 nM

**Q.** What about the GI50 ([3]; read-out: pGI50 (converted)) of the same compound?
**A.** 2250 nM
